# Data published in ChEMBL document CHEMBL4431312, “Development of an Orally Available and Central Nervous System (CNS) Penetrant Toxoplasma gondii Calcium-Dependent Protein Kinase 1 (TgCDPK1) Inhibitor with Minimal Human Ether-a-go-go-Related Gene (hERG) Activity for the Treatment of Toxoplasmosis” (J Med Chem, 2016).
# Experiments:
# [1] = biological target: Proto-oncogene tyrosine-protein kinase Src (Gallus gallus, UniProt P00523)
# in vitro [2] = conditions: human, HepG2 cells
# in vitro [3] = conditions: human, CRL8155 cells
# [4] = biological target: T1, Calmodulin-domain protein kinase 1 (Toxoplasma gondii, UniProt Q9BJF5)
# T1 sequence (Q9BJF5 whole entry): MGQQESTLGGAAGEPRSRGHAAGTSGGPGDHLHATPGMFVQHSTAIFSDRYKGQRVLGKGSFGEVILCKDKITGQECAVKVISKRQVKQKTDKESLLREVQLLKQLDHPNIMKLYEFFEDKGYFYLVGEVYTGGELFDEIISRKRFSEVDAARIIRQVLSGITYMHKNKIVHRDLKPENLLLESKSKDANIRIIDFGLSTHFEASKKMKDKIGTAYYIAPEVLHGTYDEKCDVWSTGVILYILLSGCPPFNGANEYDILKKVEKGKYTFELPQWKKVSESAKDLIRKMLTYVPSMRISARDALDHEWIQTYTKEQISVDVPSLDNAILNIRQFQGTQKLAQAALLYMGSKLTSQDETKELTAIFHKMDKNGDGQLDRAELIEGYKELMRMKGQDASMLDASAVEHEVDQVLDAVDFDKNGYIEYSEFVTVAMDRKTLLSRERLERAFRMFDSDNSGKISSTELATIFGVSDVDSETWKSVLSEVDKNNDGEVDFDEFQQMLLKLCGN
# [5] = biological target: Voltage-gated inwardly rectifying potassium channel KCNH2 (Homo sapiens, UniProt Q12809)
# [6] = mouse, in vivo, po, 10 mg/kg
# [7] = mouse, in vivo, po, 10 mg/kg; remark: listed apart in the source
# in vivo [8] = conditions: BALB/c, mouse, plasma, po, 10 mg/kg
# in vivo [9] = conditions: BALB/c, mouse, plasma, po, 10 mg/kg; remark: listed apart in the source
# Toxoplasma gondii = assay: microbe, parasite or virus in culture; conditions: 44 h
# [10] = buffer, pH 6.5
# in vivo [11] = conditions: BALB/c, mouse, plasma, po, 10 mg/kg; remark: listed apart in the source
# in vivo [12] = conditions: BALB/c, mouse, plasma, po, 10 mg/kg; remark: listed apart in the source
# in vivo [13] = conditions: BALB/c, mouse, plasma, po, 10 mg/kg; remark: listed apart in the source
# Chain of Voltage-gated inwardly rectifying potassium channel KCNH2 (Q12809 whole entry): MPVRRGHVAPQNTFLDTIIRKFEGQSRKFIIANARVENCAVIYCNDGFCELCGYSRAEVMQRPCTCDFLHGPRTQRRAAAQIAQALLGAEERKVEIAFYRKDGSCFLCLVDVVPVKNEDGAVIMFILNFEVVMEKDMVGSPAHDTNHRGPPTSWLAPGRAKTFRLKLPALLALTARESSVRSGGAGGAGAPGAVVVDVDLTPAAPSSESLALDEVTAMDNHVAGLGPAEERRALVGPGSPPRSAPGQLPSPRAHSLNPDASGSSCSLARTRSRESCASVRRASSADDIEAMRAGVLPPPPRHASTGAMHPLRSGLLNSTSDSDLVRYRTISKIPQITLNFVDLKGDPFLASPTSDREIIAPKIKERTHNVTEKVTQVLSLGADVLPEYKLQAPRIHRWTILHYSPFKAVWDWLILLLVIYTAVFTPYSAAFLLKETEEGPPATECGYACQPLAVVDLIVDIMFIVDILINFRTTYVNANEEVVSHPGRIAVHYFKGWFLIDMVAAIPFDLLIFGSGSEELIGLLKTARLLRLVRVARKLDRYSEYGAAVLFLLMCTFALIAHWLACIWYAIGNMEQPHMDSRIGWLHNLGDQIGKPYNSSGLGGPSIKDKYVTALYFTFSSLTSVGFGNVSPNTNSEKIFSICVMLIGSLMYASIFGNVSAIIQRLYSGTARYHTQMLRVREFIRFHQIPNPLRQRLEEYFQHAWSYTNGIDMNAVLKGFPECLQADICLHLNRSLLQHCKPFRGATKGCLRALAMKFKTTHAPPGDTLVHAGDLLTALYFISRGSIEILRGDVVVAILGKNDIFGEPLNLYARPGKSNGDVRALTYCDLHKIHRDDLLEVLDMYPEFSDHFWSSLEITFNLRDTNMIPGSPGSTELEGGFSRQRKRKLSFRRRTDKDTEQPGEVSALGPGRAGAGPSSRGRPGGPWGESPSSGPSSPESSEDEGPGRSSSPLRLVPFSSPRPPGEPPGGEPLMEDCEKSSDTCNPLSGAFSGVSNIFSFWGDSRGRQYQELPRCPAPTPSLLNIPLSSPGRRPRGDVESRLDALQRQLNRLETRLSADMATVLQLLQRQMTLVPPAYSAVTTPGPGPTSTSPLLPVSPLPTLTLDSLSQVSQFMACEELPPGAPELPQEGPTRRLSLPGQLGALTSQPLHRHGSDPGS
SMILES,IC50 [1] [µM],GI50 at 48 h (in vitro [2]) [µM],GI50 at 48 h (in vitro [3]) [µM],IC50 [4] [µM],IC50 [5] [µM],Tmax [6] [h],Cmax [7] [nM],AUC(0-inf) (in vivo [8]) [µM·h],CL/F (in vivo [9]) [mL/min],EC50 (Toxoplasma gondii) [µM],solubility [10] [µM],Cmax (in vivo [11]) [nM],half-life (in vivo [12]) [h],Tmax (in vivo [13]) [h]
CCOc1ccc2cc(-c3nn(CC(C)(C)O)c4ncnc(N)c34)ccc2c1,> 10,> 10,> 10,,,,,,,,,,,
CC1(Cn2nc(-c3ccc4cc(OC5CC5)ccc4c3)c3c(N)ncnc32)COC1,> 10,> 10,> 10,0.0021,1.9,,,,,,,,,
CN1CCC(Cn2nc(-c3ccc4nc(OCC(F)(F)F)ccc4c3)c3c(N)ncnc32)CC1,,,,,0.5,,,,,,,,,
CCOc1ccc2cc(-c3nn(CC4CCOCC4)c4ncnc(N)c34)ccc2c1,> 10,> 10,> 10,0.002,> 10,,,,,,,,,
CC(C)(CO)Cn1nc(-c2ccc3nc(OCC(F)(F)F)ccc3c2)c2c(N)ncnc21,> 10,> 10,> 10,0.017,,,,,,,,,,
Nc1ncnc2c1c(-c1ccc3cc(OC4CC4)ccc3c1)nn2CC1CCOCC1,0.37,> 10,> 10,0.0024,> 10,,,,,,,,,
CN1CCC(Cn2nc(-c3ccc4cc(OC5CC5)ccc4c3)c3c(N)ncnc32)CC1,> 10,,> 10,0.0015,0.37,,,,,,,,,
Nc1ncnc2c1c(-c1ccc3nc(OC4CC4)ccc3c1)nn2CC1CCOCC1,> 10,> 10,> 10,,> 10,0.5,880,1.12,110,0.081,,,,
CCOc1ccc2cc(-c3nn(CC(C)(C)O)c4ncnc(N)c34)ccc2n1,> 10,> 10,> 10,,> 10,,,,0.2,,,,,
CN1CCC(Cn2nc(-c3ccc4cc(OCC5CC5)ccc4c3)c3c(N)ncnc32)CC1,> 10,> 10,> 10,,0.9,,,,,,,,,
Nc1ncnc2c1c(-c1ccc3cc(OC4CC4)ccc3c1)nn2CC(O)(C(F)(F)F)C(F)(F)F,> 10,> 10,> 10,,,,,,,,,,,
CC(C)(CO)Cn1nc(-c2ccc3cc(OC4CC4)ccc3c2)c2c(N)ncnc21,3.1,> 10,> 10,,> 10,,390,0.517,6.7,0.056,,,,
CCOc1ccc2cc(-c3nn(CC4CCN(C(C)=O)CC4)c4ncnc(N)c34)ccc2c1,> 10,> 10,> 10,,> 10,,,1.57,2.5,,48,890,,
CC(C)Cn1nc(-c2ccc3nc(OC4CC4)ccc3c2)c2c(N)ncnc21,> 10,> 10,> 10,,> 10,,,,,,,,,
CCOc1ccc2cc(-c3nn(CC4CN(C)C4)c4ncnc(N)c34)ccc2c1,> 10,> 10,> 10,0.006,1.4,,,,,,,,,
CC(C)(CO)Cn1nc(-c2ccc3nc(OC4CC4)ccc3c2)c2c(N)ncnc21,7.4,> 10,> 10,,> 10,,,0.065,21,,8,3900,0.683,
CCOc1ccc2cc(-c3nn(CC4CCN(C)CC4)c4ncnc(N)c34)ccc2c1,> 10,> 10,> 10,,0.4,,750,,0.7,,,,,2
CCOc1ccc2cc(-c3nn(CC4CCN(C)CC4)c4ncnc(N)c34)ccc2n1,> 10,> 10,> 10,0.0061,10,,,,1.8,,,260,3.72,3.33
CCOc1ccc2cc(-c3nn(CC4CNC4)c4ncnc(N)c34)ccc2c1,> 10,> 10,> 10,0.0032,1.7,,,,,,,,,

# More lines, main results first:
IC50 [1] [µM],GI50 at 48 h (in vitro [2]) [µM],GI50 at 48 h (in vitro [3]) [µM],SMILES,IC50 [4] [µM],IC50 [5] [µM],Tmax [6] [h],Cmax [7] [nM],AUC(0-inf) (in vivo [8]) [µM·h],CL/F (in vivo [9]) [mL/min],EC50 (Toxoplasma gondii) [µM],solubility [10] [µM],Cmax (in vivo [11]) [nM],half-life (in vivo [12]) [h],Tmax (in vivo [13]) [h]
> 10,> 10,> 10,COCCOc1ccc2cc(-c3nn(CC4CCN(C)CC4)c4ncnc(N)c34)ccc2c1,,,,,,,,,,,
> 10,> 10,> 10,CCOc1ccc2cc(-c3nn(CC4CCN(C(C)C)CC4)c4ncnc(N)c34)ccc2c1,0.01,0.3,,,,,,,,,
> 10,> 10,> 10,CCOc1ccc2cc(-c3nn(CC4CCOCC4)c4ncnc(N)c34)ccc2n1,,> 10,,,,,,,,,
> 10,> 10,> 10,CN1CCC(Cn2nc(-c3ccc4cc(OC5CCC5)ccc4c3)c3c(N)ncnc32)CC1,,0.2,,,,,,,,,
> 10,> 10,,CN1CCC(Cn2nc(-c3ccc4nc(OC5CC5)ccc4c3)c3c(N)ncnc32)CC1,,1.7,,,,,,,,,
1.1,> 10,> 10,CCOc1ccc2cc(-c3nn(CC4CN(C(C)=O)C4)c4ncnc(N)c34)ccc2c1,0.004,> 10,,,,,,,,,
> 10,> 10,> 10,CN(C)CC(C)(C)Cn1nc(-c2ccc3nc(OC4CC4)ccc3c2)c2c(N)ncnc21,,0.082,,,,,,,,,
> 10,> 10,> 10,CC1(Cn2nc(-c3ccc4nc(OC5CC5)ccc4c3)c3c(N)ncnc32)COC1,,> 10,,,,,,,,,
> 10,> 10,> 10,CN1CCC(Cn2nc(-c3ccc4cc(OC5COC5)ccc4c3)c3c(N)ncnc32)CC1,0.01,,,,,,,,,,
> 10,> 10,> 10,CCOc1ccc2cc(-c3nn(CC(C)C)c4ncnc(N)c34)ccc2c1,,> 10,,,,,,,,,
3.7,,> 10,CC(C)Cn1nc(-c2ccc3cc(OC4CC4)ccc3c2)c2c(N)ncnc21,0.0011,> 10,,,,,,,,,
